One data set relates to platelet aggregation. Kind of data set: Antiaggregatory action in rats (ADP-induced platelet aggregation in PRP after intravenous administration). It counts as in vivo. The note with it: Rattus norvegicus, 1 h, male SD rats, blood collected one hour after administration, versus control rats, read-out: Test 2 (% inhibition). Here is the method:
Antiaggregatory Action in Rats
Platelet aggregation was measured using an automatic platelet aggregometer (PAM-8C, Mebanix) using the method of G.V.R. Born [Nature, 194, 927-929(1962)] with a slight modification. The experimental animals were male SD rats (Japan SLC). One hour after intravenous administration of a test compound to the rats, blood was collected from the abdominal aorta under anesthesia, using 3.8% sodium citrate as an anticoagulant ( 1/9 volumes of blood). Platelet-rich plasma (PRP) was obtained by centrifugation (CR5DL, Hitachi) at 230× g for 15 min at room temperature. Platelet-poor plasma (PPP) was obtained by centrifugation of the remaining blood at 2,000× g for 10 min at room temperature. Platelet counts in PRP were measured by an automatic hematology analyzer (K-1000, Toa Iyo Denshi), and adjusted to 5×10^8 /ml by adding PPP, and then used for the platelet aggregation experiment. PRP (0.24 ml) was added to a cuvette and placed in the platelet aggregometer. After pre-incubation for 1.5 min at 37° C., 0.01 ml of 0.75 mM ADP were added to the cuvette to induce platelet aggregation. Platelet aggregation was monitored for 8 min.
Antiaggregatory action (% inhibition) of the test compound was determined from a comparison of the maximum aggregation of the test compound-treated rat with that of control rats (free of the administration of the test compound).

The subject of the next data set is Human Platelets. Kind of data set: Antiaggregatory action in human platelets (ADP-induced aggregation in platelet-rich plasma). The note with it: Platelet, human PRP, read-out: Test 1 (% inhibition) of platelet aggregation; for inhibition at 10 µg/mL: 10 μg/ml test compound; for inhibition at 30 µg/mL: 30 μg/ml test compound; for inhibition at 100 µg/mL: 100 μg/ml test compound. It counts as cell-based. Here is the method:
Antiaggregatory Action in Human Platelets
Platelet aggregation was measured using an automatic platelet aggregometer (PAM-8C, Mebanix) using the method of G.V.R. Born [Nature, 194, 927-929 ([…])] with a slight modification. Blood was collected from the antecubital vein of healthy volunteers who had not taken any medications for two weeks using 3.8% sodium citrate as an anticoagulant ( 1/9 volumes of blood). Platelet-rich plasma (PRP) was obtained by centrifugation (CR5DL, Hitachi) at 200× g for 15 min at room temperature. Platelet-poor plasma (PPP) was obtained by centrifugation of the remaining blood at 2,000× g for 10 min at room temperature. Platelet counts in PRP were measured by an automatic hematology analyzer (K-1000, Toa Iyo Denshi), and adjusted to 3×10^8 /ml by adding PPP. PRP prepared as described above was used for the platelet aggregation experiment. PRP (0.24 ml) containing a test compound was added to a cuvette and set placed in the platelet aggregometer. After pre-incubation for 1.5 min at 37° C., 0.01 ml of 0.25 mM ADP were added to the cuvette to induce platelet aggregation. Platelet aggregation was monitored for 10 min.
Antiaggregatory action of the test compound was determined as a percent inhibition (%) against platelet aggregation of a control (free of the test compound).

These results are taken from patent US6610708B1, “Cyclic amino compounds” (Sankyo Company, Limited, priority 1998, dated 2003).

The term inhibition denotes the percentage by which the read-out fell short of the control. As usually defined, the melting point is the temperature of the solid-liquid transition.

On to `CCOC(=O)/C=C1\CN(C(C(=O)OC)c2ccccc2Cl)CCC1SS(=O)(=O)c1ccc(C)cc1.Cl` (stereo not drawn) [Example 7 (d), (E)-1-(2-chloro-α-methoxycarbonylbenzyl)-3-ethoxycarbonylmethylidene-4-(4-methylphenylsulfonylthio)piperidine hydrochloride], for which the melting point lay within 73 to 78 °C. Further, in the data set with platelet aggregation, the inhibition at 10 mg/kg came out at 59%. In the data set with Human Platelets, the inhibition at 10 µg/mL turned out to be 24.6%, the inhibition at 30 µg/mL came out at 60% and the inhibition at 100 µg/mL was found to be 99.1%.

`Cc1ccc(S(=O)(=O)SC2CCN(C(C(=O)C3CC3)c3ccccc3F)CC2)cc1` (stereo not drawn) [Example 1, 1-(α-Cyclopropylcarbonyl-2-fluorobenzyl)-4-(4-methylphenylsulfonylthio)-piperidine]: the melting point lay within 63 to 69 °C. Further, in the data set on Human Platelets, the inhibition at 10 µg/mL is 36.5%, the inhibition at 30 µg/mL was 99.6% and the inhibition at 100 µg/mL was 100%.

Consider `N[C@@H](CSSC1CCN(C(C(=O)C2CC2)c2ccccc2F)C/C1=C/C(=O)O)C(=O)O` (stereo partly drawn) [Example 19 (d), (Z)-4-[(R)-2-Amino-2-carboxyethyldisulfanyl]-3-carboxymethylidene-1-(α-cyclopropylcarbonyl-2-fluorobenzyl)piperidine], for which, in the data set on platelet aggregation, the inhibition at 10 mg/kg was found to be 89.2%.

For `CCOC(=O)/C=C1\CN(C(C(=O)C2CC2)c2ccccc2F)CCC1SS(=O)(=O)c1ccc(C)cc1` (stereo not drawn) [Example 6 (d), (E)-1-(α-Cyclopropylcarbonyl-2-fluorobenzyl)-3-ethoxycarbonylmethylidene-4-(4-methylphenylsulfonylthio)piperidine], the inhibition at 10 mg/kg with platelet aggregation is 51.8%. In the data set on Human Platelets, the inhibition at 10 µg/mL came out at 22.5%, the inhibition at 30 µg/mL worked out at 53.2% and the inhibition at 100 µg/mL came out at 100%.
